Data on 2 compounds can be found in patent US8889699B2, “5-fluorouracil derivative” (Delta-Fly Pharma, Inc., priority 2009, dated 2014).

Where two headings read alike, the source gives them in different places.

What is called inhibition is the percentage by which the read-out fell short of the control.

This assay relates to sarcoma 180 cells. The experiment in a line: Inhibition of intracellular phosphorylation of 5-FU in cancer cells. It counts as cell-based, mouse. The conditions noted are these: for inhibition at 10 µM / inhibition at 100 µM: Mus musculus, Sarcoma-180, 0.5 h. The procedure:
(§1) • (a) Test liquid preparation 1: Compound I-2 or I-10 of the present invention was dissolved to a concentration of 1 mM in cold physiological saline. The resulting product was further diluted 10-fold with physiological saline, yielding a 100-μM solution. • (b) Test liquid preparation 2: As an OPRT inhibitor, which inhibits the phosphorylation of 5-FU, citrazinic acid (Citra.A.) was dissolved to a concentration of 1 mM in cold physiological saline, and further diluted 10-fold with physiological saline, yielding a 100-μM solution. • (c) Preparation of cancer cell suspension: Ascites-type sarcoma 180 cells were preliminarily transplanted intraperitoneally into an ICR mouse and proliferated therein for use in the test as raw (intact) cells. The proliferated cells were isolated and then washed with physiological saline. […] Immediately after the completion of the reaction, 4 mL of a cold Hanks solution was added to the reaction solution, and the cells were washed and separated by centrifugation. After this procedure was repeated twice, 2 mL of a cold 5% trichloroacetic acid (TCA) solution was added to the cell pellet to disrupt the cells, and 5-FU and its nucleotide metabolites were extracted. Subsequently, a portion of the nucleic acid extract was applied to a silica gel 60F254 plate and developed with a mixed liquid comprising chloroform-methanol-acetic acid (17:3:1) to isolate the nucleotide moiety. The radioactivity thereof was measured and the concentration of 5-FU phosphorylation was measured.
as §1, with “1: Compounds I-9, I-11, I-12, and I-13” for “1: Compound I-2 or I-10”, “invention were separately” for “invention was”, “saline. Each of the” for “saline. The”, “resulting products” for “resulting product”, “acid” for “acid (Citra.A.)”

The mark [1] stands for this setting: Conc. 10 μM, 30 min. Incubation, 5-FU 2 μM, Table 6.
[2] abbreviates: Conc. 100 μM, 30 min. Incubation, 5-FU 2 μM, Table 6.
Setting [3] is: Conc. 10 μM, 30 min. Incubation, 5-FU 2 μM, Table 6, read-out: Inhibition (%) of phosphorylation of 5-FU.
[4] abbreviates: Conc. 100 μM, 30 min. Incubation, 5-FU 2 μM, Table 6, read-out: Inhibition (%) of phosphorylation of 5-FU.
[5] abbreviates: concentration of 10 μM, reaction for 30 minutes, read-out: percent inhibition of intracellular phosphorylation of 5-FU.
[6] abbreviates: concentration of 100 μM, reaction for 30 minutes, read-out: percent inhibition of intracellular phosphorylation of 5-FU.

As to `CCOCn1cc(F)c(=O)n(C(=O)c2cccc(C(=O)Oc3cc(OC(=O)c4cc(OC(=O)C(C)(C)C)nc(OC(=O)C(C)(C)C)c4)c(Cl)cn3)c2)c1=O` [Compound I-12, 3-{3-[4-(2,6-dipivaloyloxyisonicotinoyloxy)-5-chloro-2-pyridyloxycarbonyl]benzoyl}-1-ethoxymethyl-5-fluorouracil], the “RNA Fraction” value is given as 28.15 pmol/1 × 10^7 cells under setting [1] and 25.48 pmol/1 × 10^7 cells under setting [2]. The inhibition at 10 µM is 55.5% under setting [3] and 35 to 57% under setting [5]. Also, the inhibition at 100 µM is 59.8% under setting [4] and 56 to 63% under setting [6].
As for `CCOCn1cc(F)c(=O)n(C(=O)c2cccc(C(=O)Oc3cc(OC(=O)c4ccc(OC(=O)c5ccccc5)nc4OC(=O)c4ccccc4)c(Cl)cn3)c2)c1=O` [Compound I-13, 3-{3-[4-(2,6-dibenzoyloxynicotinoyloxy)-5-chloro-2-pyridyloxycarbonyl]benzoyl}-1-ethoxymethyl-5-fluorouracil], the “RNA Fraction” value is, setting by setting: under setting [1], 26.63 pmol/1 × 10^7 cells; under setting [2], 25.68 pmol/1 × 10^7 cells. The inhibition at 10 µM is 58.1% under setting [3] and 35 to 57% under setting [5]. Also, the inhibition at 100 µM under setting [4] was determined as 59.4% and the inhibition at 100 µM under setting [6] lay in the range of 56 to 63%.
